Reference: patent US20230407243A1, “GENETIC PLATFORM TO INVESTIGATE THE FUNCTIONS OF BACTERIAL DRUG EFFLUX PUMPS” (priority 2022, published 2023)
Where two headings read alike, the source gives them in different places.

Tests used:
Assay type in all cases: cell-based, Escherichia coli
EKO-35 araC::macAB = assay: MIC susceptibility profiling, efflux platform; conditions: for Fold change of MICs: EKO-35 araC::macAB compared to EKO-35; for MIC: Escherichia coli, Table 13B, non-porinated, technical duplicate, read-out: Minimum Inhibitory Concentration, EKO-35 araC::macAB
Outline: (§1)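 Turbidity (OD600, pre-incubation subtracted) defined growth after 18 h at 37 °C in MHB II. The inoculum was diluted 1/2000 from an OD600 ~1.0 PBS suspension of an overnight LB culture. Compounds were run as duplicate twofold dilutions.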

EKO-35 araC::emrKY = assay: MIC susceptibility profiling, efflux platform; conditions: for Fold change of MICs: EKO-35 araC::emrKY compared to EKO-35; for MIC: Escherichia coli, Table 13B, non-porinated, technical duplicate, read-out: Minimum Inhibitory Concentration, EKO-35 araC::emrKY
Outline: as §1

EKO-35 araC::acrEF = assay: MIC susceptibility profiling, efflux platform; conditions: for Fold change of MICs: EKO-35 araC::acrEF compared to EKO-35; for MIC: Escherichia coli, Table 13A, non-porinated, technical duplicate, read-out: Minimum Inhibitory Concentration, EKO-35 araC::acrEF
Outline: as §1

[1] = system: EKO-35 araC::mexCD (MexCD from P. aeruginosa); assay: MIC susceptibility profiling, efflux platform; conditions: for Fold change of MICs: EKO-35 araC::mexCD compared to EKO-35; for MIC: Table 13B, non-porinated, technical duplicate, read-out: Minimum Inhibitory Concentration, EKO-35 araC::mexCD
Outline: as §1

EKO-35 araC::emrAB = assay: MIC susceptibility profiling, efflux platform; conditions: for Fold change of MICs: EKO-35 araC::emrAB compared to EKO-35; for MIC: Escherichia coli, Table 13B, non-porinated, technical duplicate, read-out: Minimum Inhibitory Concentration, EKO-35 araC::emrAB
Outline: as §1

EKO-35 araC::acrD = assay: MIC susceptibility profiling, efflux platform; conditions: for Fold change of MICs: EKO-35 araC::acrD compared to EKO-35; for MIC: Escherichia coli, Table 13A, non-porinated, technical duplicate, read-out: Minimum Inhibitory Concentration, EKO-35 araC::acrD
Outline: as §1

EKO-35 araC::mdtBC = assay: MIC susceptibility profiling, efflux platform; conditions: for Fold change of MICs: EKO-35 araC::mdtBC compared to EKO-35; for MIC: Escherichia coli, Table 13B, non-porinated, technical duplicate, read-out: Minimum Inhibitory Concentration, EKO-35 araC::mdtBC
Outline: as §1

EKO-35 araC::acrB = assay: MIC susceptibility profiling, efflux platform; conditions: for Fold change of MICs: EKO-35 araC::acrB compared to EKO-35; for MIC: Escherichia coli, Table 13A, non-porinated, technical duplicate, read-out: Minimum Inhibitory Concentration, EKO-35 araC::acrB
Outline: as §1

EKO-35 araC::mdtEF = assay: MIC susceptibility profiling, efflux platform; conditions: for Fold change of MICs: EKO-35 araC::mdtEF compared to EKO-35; for MIC: Escherichia coli, Table 13A, non-porinated, technical duplicate, read-out: Minimum Inhibitory Concentration, EKO-35 araC::mdtEF
Outline: as §1

EKO-35 araC::acrBD408A = assay: MIC susceptibility profiling, efflux platform; conditions: for Fold change of MICs: EKO-35 araC::acrBD408A compared to EKO-35; for MIC: Escherichia coli, Table 13B, non-porinated, technical duplicate, read-out: Minimum Inhibitory Concentration, EKO-35 araC::acrBD408A
Outline: as §1

EKO-35 araC::acrD Pore = assay: MIC susceptibility profiling, porinated efflux platform; conditions: for Fold changes of MICs: EKO-35 araC::acrD Pore compared to EKO-35-Pore; for MIC: Escherichia coli, Table 14A, porinated, technical duplicate, read-out: Minimum inhibitory concentration, EKO-35 araC::acrD Pore
Outline: (§2)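 E. coli strains carrying a genomically integrated constitutive fhuA ΔC/Δ4L pore were grown 18 h in LB at 37 °C, then diluted 1/2000 in MHB II from OD600 ~1.0. Compounds were tested in duplicate, 2-fold serial titration, for 18 h at 37 °C with shaking. MIC came from OD600 with the pre-incubation background subtracted.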

EKO-35 araC::emrKY Pore = assay: as above; conditions: for Fold changes of MICs: EKO-35 araC::emrKY Pore compared to EKO-35-Pore; for MIC: Escherichia coli, EKO-35 araC::emrKY Pore, technical duplicate, read-out: Minimum inhibitory concentration
Outline: as §2

[2] = system: EKO-35 araC::acrBD408A Pore; assay: as above; conditions: for Fold changes of MICs: EKO-35 araC::acrBD408A Pore compared to EKO-35-Pore; for MIC: Escherichia coli, EKO-35 araC::acrBD408A Pore, technical duplicate, read-out: Minimum inhibitory concentration
Outline: as §2

ΔtolC-Pore = assay: microbe, parasite or virus in culture; conditions: for MIC: Escherichia coli, 18 h, read-out: Minimum inhibitory concentration, ΔtolC-Pore; for Minimum inhibitory concentration (MIC), Pore ΔtolC: Table 10, with pore, technical duplicate
Outline: as §2

wild-type (WT) K-12-Pore = assay: microbe, parasite or virus in culture; conditions: Escherichia coli, technical duplicate
Outline: as §2

EKO-35-Pore = assay: MIC susceptibility profiling, porinated strain; conditions: for Fold changes of MICs: EKO-35-Pore compared to EKO-35-Pore (reference); for MIC: Escherichia coli, technical duplicate
Outline: as §2

[3] = system: wild-type E. coli K-12 str. BW25113; assay: microbe, parasite or virus in culture; conditions: Escherichia coli, BW25113, technical duplicate
Outline: as §1

E. coli EKO-35 = assay: microbe, parasite or virus in culture; conditions: for Fold change of MICs: EKO-35 compared to EKO-35 (reference); for MIC: Escherichia coli, EKO35, technical duplicate
Outline: as §1

E. coli ΔtolC = assay: microbe, parasite or virus in culture; conditions: for MIC: Escherichia coli, 18 h, read-out: Minimum Inhibitory Concentration, ΔtolC; for Minimum inhibitory concentration (MIC), ΔtolC: Table 10, without pore, technical duplicate
Outline: as §1

[4] = Table 10, with pore, read-out: Minimum inhibitory concentration (MIC), Pore K-12
[5] = Table 14A, porinated, read-out: Minimum inhibitory concentration, K-12 (WT)-Pore
[6] = Table 10, with pore, read-out: Minimum inhibitory concentration (MIC), Pore EKO-35
[7] = Table 14A, porinated, read-out: Minimum inhibitory concentration, EKO-35-Pore
[8] = Table 10, without pore, read-out: Minimum inhibitory concentration (MIC), K-12
[9] = Table 13A, non-porinated, read-out: Minimum Inhibitory Concentration, K-12
[10] = Table 10, without pore, read-out: Minimum inhibitory concentration (MIC), EKO-35
[11] = Table 13A, non-porinated, read-out: Minimum Inhibitory Concentration, EKO-35

Row | Structure (SMILES) | MIC (EKO-35 araC::macAB) [µg/mL] | MIC (EKO-35 araC::emrKY) [µg/mL] | MIC (EKO-35 araC::acrEF) [µg/mL] | MIC [1] [µg/mL] | MIC (EKO-35 araC::emrAB) [µg/mL] | MIC (EKO-35 araC::acrD) [µg/mL] | MIC (EKO-35 araC::mdtBC) [µg/mL] | MIC (EKO-35 araC::acrB) [µg/mL] | MIC (EKO-35 araC::mdtEF) [µg/mL] | MIC (EKO-35 araC::acrBD408A) [µg/mL] | MIC (EKO-35 araC::acrD Pore) [µg/mL] | MIC (EKO-35 araC::emrKY Pore) [µg/mL] | MIC [2] [µg/mL] | MIC (ΔtolC-Pore) [µg/mL] | Minimum inhibitory concentration (MIC), Pore ΔtolC (ΔtolC-Pore) [µg/mL] | MIC (wild-type (WT) K-12-Pore; [4]) [µg/mL] | MIC (wild-type (WT) K-12-Pore; [5]) [µg/mL] | MIC (EKO-35-Pore; [6]) [µg/mL] | MIC (EKO-35-Pore; [7]) [µg/mL] | MIC [3, 8] [µg/mL] | further results
1 | COc1cccc2c1C(=O)c1c(O)c3c(c(O)c1C2=O)C[C@@](O)(C(C)=O)C[C@@H]3O[C@H]1C[C@H](N)[C@H](O)[C@H](C)O1 [daunorubicin] | 6.25 | 3.12 | 200 | 100 | 3.12 | 6.25 | 1.56 | 200 | 200 | 3.12 | 1.56 | 0.781 | 0.781 | 0.781 | 0.781 | 100 | 100 | 0.781 | 0.781 | 200 | Fold change of MICs (EKO-35 araC::macAB): 2 fold; Fold change of MICs (EKO-35 araC::emrKY): 1 fold; Fold change of MICs (EKO-35 araC::acrEF): 64 fold; Fold change of MICs [1]: 32 fold; Fold change of MICs (EKO-35 araC::emrAB): 1 fold; Fold change of MICs (EKO-35 araC::acrD): 2 fold; Fold change of MICs (EKO-35 araC::mdtBC): 1 fold; Fold change of MICs (EKO-35 araC::acrB): 64 fold; Fold change of MICs (EKO-35 araC::mdtEF): 64 fold; Fold change of MICs (EKO-35 araC::acrBD408A): 1 fold; Fold changes of MICs (EKO-35 araC::acrD Pore): 2 fold; Fold changes of MICs (EKO-35 araC::emrKY Pore): 1 fold; Fold changes of MICs [2]: 1 fold; Fold changes of MICs (EKO-35-Pore): 1 fold; MIC [3, 9]: 200 µg/mL; Fold change of MICs (E. coli EKO-35): 1 fold; MIC (E. coli EKO-35; [10]): 3.12 µg/mL; MIC (E. coli EKO-35; [11]): 3.12 µg/mL; MIC (E. coli ΔtolC): 1.56 µg/mL; Minimum inhibitory concentration (MIC), ΔtolC (E. coli ΔtolC): 1.563 µg/mL
2 | COc1cccc2c1C(=O)c1c(O)c3c(c(O)c1C2=O)C[C@@](O)(C(=O)CO)C[C@@H]3O[C@H]1C[C@H](N)[C@H](O)[C@H](C)O1 [doxorubicin] | 1.56 | 1.56 | 100 | 25 | 1.56 | 3.12 | 1.56 | 200 | 100 | 1.56 | 0.781 | 0.781 | 0.781 | 0.781 | 0.781 | 50 | 50 | 0.781 | 0.781 | 200 | Fold change of MICs (EKO-35 araC::macAB): 1 fold; Fold change of MICs (EKO-35 araC::emrKY): 1 fold; Fold change of MICs (EKO-35 araC::acrEF): 64 fold; Fold change of MICs [1]: 16 fold; Fold change of MICs (EKO-35 araC::emrAB): 1 fold; Fold change of MICs (EKO-35 araC::acrD): 2 fold; Fold change of MICs (EKO-35 araC::mdtBC): 1 fold; Fold change of MICs (EKO-35 araC::acrB): 128 fold; Fold change of MICs (EKO-35 araC::mdtEF): 64 fold; Fold change of MICs (EKO-35 araC::acrBD408A): 1 fold; Fold changes of MICs (EKO-35 araC::acrD Pore): 1 fold; Fold changes of MICs (EKO-35 araC::emrKY Pore): 1 fold; Fold changes of MICs [2]: 1 fold; Fold changes of MICs (EKO-35-Pore): 1 fold; MIC [3, 9]: 200 µg/mL; Fold change of MICs (E. coli EKO-35): 1 fold; MIC (E. coli EKO-35; [10]): 1.56 µg/mL; MIC (E. coli EKO-35; [11]): 1.56 µg/mL; MIC (E. coli ΔtolC): 1.56 µg/mL; Minimum inhibitory concentration (MIC), ΔtolC (E. coli ΔtolC): 1.563 µg/mL
3 | CC[C@H]1OC(=O)[C@H](C)[C@@H](O[C@H]2C[C@@](C)(OC)[C@@H](O)[C@H](C)O2)[C@H](C)[C@@H](O[C@@H]2O[C@H](C)C[C@H](N(C)C)[C@H]2O)[C@](C)(O)C[C@@H](C)C(=O)[C@H](C)[C@@H](O)[C@]1(C)O [erythromycin] | 12.5 | 3.12 | 50 | 25 | 3.12 | 3.12 | 3.12 | 100 | 50 | 3.12 | 0.195 | 0.195 | 0.098 | 0.195 | 0.195 | 6.25 | 6.25 | 0.195 | 0.195 | 100 | efflux pump-mediated resistance vs EKO-35 (EKO-35 araC::macAB; MacAB): specific; MIC [3, 9]: 100 µg/mL; MIC (E. coli EKO-35; [10]): 3.12 µg/mL; MIC (E. coli EKO-35; [11]): 3.12 µg/mL; MIC (E. coli ΔtolC): 3.12 µg/mL; Minimum inhibitory concentration (MIC), ΔtolC (E. coli ΔtolC): 3.125 µg/mL
4 | CC[n+]1c(-c2ccccc2)c2cc(N)ccc2c2ccc(N)cc21 [ethidium bromide] | 0.195 | 0.195 | 3.12 | 1.56 | 0.195 | 0.391 | 0.195 | 12.5 | 1.56 | 0.391 | 0.195 | 0.098 | 0.098 | 3.12 | 3.125 | 100 | 100 | 0.098 | 0.098 | 100 | Fold change of MICs (EKO-35 araC::macAB): 1 fold; Fold change of MICs (EKO-35 araC::emrKY): 1 fold; Fold change of MICs (EKO-35 araC::acrEF): 16 fold; Fold change of MICs [1]: 8 fold; Fold change of MICs (EKO-35 araC::emrAB): 1 fold; Fold change of MICs (EKO-35 araC::acrD): 2 fold; Fold change of MICs (EKO-35 araC::mdtBC): 1 fold; Fold change of MICs (EKO-35 araC::acrB): 64 fold; Fold change of MICs (EKO-35 araC::mdtEF): 8 fold; Fold change of MICs (EKO-35 araC::acrBD408A): 2 fold; Fold changes of MICs (EKO-35 araC::acrD Pore): 2 fold; Fold changes of MICs (EKO-35 araC::emrKY Pore): 1 fold; Fold changes of MICs [2]: 1 fold; Fold changes of MICs (EKO-35-Pore): 1 fold; MIC [3, 9]: 100 µg/mL; Fold change of MICs (E. coli EKO-35): 1 fold; MIC (E. coli EKO-35; [10]): 0.195 µg/mL; MIC (E. coli EKO-35; [11]): 0.195 µg/mL; MIC (E. coli ΔtolC): 3.12 µg/mL; Minimum inhibitory concentration (MIC), ΔtolC (E. coli ΔtolC): 3.125 µg/mL
